In the NIST ThermoML archive (doi:10.1016/j.jct.2009.08.012):
Where “and” joins values, the source holds several entries; their conditions need not be identical. Identical values can stand only once. Numbers after ± are expanded uncertainties.

Assay: activity coefficient (dimensionless); of the first substance listed, at infinite dilution; xn = mol fraction of the nth substance listed
Conditions: Liquid, Chromatography, x1 = 0

With Cc1ccccc1 [toluene] + CCCCCCCC[N+](C)(CCCCCCCC)CCCCCCCC.O=S(=O)([N-]S(=O)(=O)C(F)(F)F)C(F)(F)F the activity coefficient (303.15 K) was 0.51 ± 0.03, the activity coefficient (313.15 K) was 0.52 ± 0.03 and the activity coefficient (323.15 K) was 0.55 and 0.53.
With C=CCCCCC [1-heptene] + CCCCCCCC[N+](C)(CCCCCCCC)CCCCCCCC.O=S(=O)([N-]S(=O)(=O)C(F)(F)F)C(F)(F)F the activity coefficient (303.15 K) was 1.46 and 1.44, the activity coefficient (313.15 K) was 1.45 and 1.43 and the activity coefficient (323.15 K) was 1.44 and 1.42.
With CCCCCCCC [octane] + CCCCCCCC[N+](C)(CCCCCCCC)CCCCCCCC.O=S(=O)([N-]S(=O)(=O)C(F)(F)F)C(F)(F)F the activity coefficient (303.15 K) was 1.52 and 1.54, the activity coefficient (313.15 K) was 1.46 and 1.49 and the activity coefficient (323.15 K) was 1.44 and 1.43.
For C1CCCCCCC1 [cyclooctane] + CCCCCCCC[N+](C)(CCCCCCCC)CCCCCCCC.O=S(=O)([N-]S(=O)(=O)C(F)(F)F)C(F)(F)F, the activity coefficient (303.15 K) was 1.08 and 1.07, the activity coefficient (313.15 K) was 1.01 and 1.03 and the activity coefficient (323.15 K) was 0.99 and 1.03.
For C#CCCCCCC [1-octyne] + CCCCCCCC[N+](C)(CCCCCCCC)CCCCCCCC.O=S(=O)([N-]S(=O)(=O)C(F)(F)F)C(F)(F)F, the activity coefficient (303.15 K) was 1.07 and 1.05, the activity coefficient (313.15 K) was 1.08 and 1.06 and the activity coefficient (323.15 K) was 1.1 and 1.08.
In the case of CCCCCC [hexane] + CCCCCCCC[N+](C)(CCCCCCCC)CCCCCCCC.O=S(=O)([N-]S(=O)(=O)C(F)(F)F)C(F)(F)F, the activity coefficient (303.15 K) is reported as 1.13 ± 0.03, the activity coefficient (313.15 K) is reported as 1.11 and 1.12 and the activity coefficient (323.15 K) is reported as 1.11 and 1.1.
With CCO [ethanol] + CCCCCCCC[N+](C)(CCCCCCCC)CCCCCCCC.O=S(=O)([N-]S(=O)(=O)C(F)(F)F)C(F)(F)F the activity coefficient (303.15 K) was 0.94 and 0.95, the activity coefficient (313.15 K) was 0.85 and 0.87 and the activity coefficient (323.15 K) was 0.8 and 0.83.
With C=CCCCCCC [oct-1-ene] + CCCCCCCC[N+](C)(CCCCCCCC)CCCCCCCC.O=S(=O)([N-]S(=O)(=O)C(F)(F)F)C(F)(F)F the activity coefficient (303.15 K) was 1.69 ± 0.07, the activity coefficient (313.15 K) was 1.65 and 1.67 and the activity coefficient (323.15 K) was 1.64 and 1.66.
With CCCCCCCCCC [decane] + CCCCCCCC[N+](C)(CCCCCCCC)CCCCCCCC.O=S(=O)([N-]S(=O)(=O)C(F)(F)F)C(F)(F)F the activity coefficient (303.15 K) was 3.2 and 3, the activity coefficient (313.15 K) was 2.74 and 2.72 and the activity coefficient (323.15 K) was 2.5 ± 0.11.
In the case of C#CCCC [1-pentyne] + CCCCCCCC[N+](C)(CCCCCCCC)CCCCCCCC.O=S(=O)([N-]S(=O)(=O)C(F)(F)F)C(F)(F)F, the activity coefficient (303.15 K) is reported as 0.53 and 0.52, the activity coefficient (313.15 K) is reported as 0.52 and 0.53 and the activity coefficient (323.15 K) is reported as 0.54 and 0.55.
For c1ccccc1 [benzene] + CCCCCCCC[N+](C)(CCCCCCCC)CCCCCCCC.O=S(=O)([N-]S(=O)(=O)C(F)(F)F)C(F)(F)F, the activity coefficient (303.15 K) was 0.32 and 0.31, the activity coefficient (313.15 K) was 0.31 ± 0.04 and the activity coefficient (323.15 K) was 0.31 and 0.32.
With C1CCCCCCCC1 [cyclononane] + CCCCCCCC[N+](C)(CCCCCCCC)CCCCCCCC.O=S(=O)([N-]S(=O)(=O)C(F)(F)F)C(F)(F)F the activity coefficient (303.15 K) was 1.76 and 1.74, the activity coefficient (313.15 K) was 1.68 ± 0.07 and the activity coefficient (323.15 K) was 1.63 and 1.61.
For CCCO [propan-1-ol] + CCCCCCCC[N+](C)(CCCCCCCC)CCCCCCCC.O=S(=O)([N-]S(=O)(=O)C(F)(F)F)C(F)(F)F, the activity coefficient (303.15 K) was 1.37 and 1.35, the activity coefficient (313.15 K) was 1.24 and 1.22 and the activity coefficient (323.15 K) was 1.13 and 1.15.
With C1CCCCC1 [cyclohexane] + CCCCCCCC[N+](C)(CCCCCCCC)CCCCCCCC.O=S(=O)([N-]S(=O)(=O)C(F)(F)F)C(F)(F)F the activity coefficient (303.15 K) was 0.84 ± 0.03, the activity coefficient (313.15 K) was 0.8 and 0.81 and the activity coefficient (323.15 K) was 0.8 and 0.79.
In the case of CCC(C)=O [butanone] + CCCCCCCC[N+](C)(CCCCCCCC)CCCCCCCC.O=S(=O)([N-]S(=O)(=O)C(F)(F)F)C(F)(F)F, the activity coefficient (303.15 K) is reported as 0.32 and 0.34, the activity coefficient (313.15 K) is reported as 0.31 and 0.33 and the activity coefficient (323.15 K) is reported as 0.29 and 0.31.
For C1CCCCCC1 [cycloheptane] + CCCCCCCC[N+](C)(CCCCCCCC)CCCCCCCC.O=S(=O)([N-]S(=O)(=O)C(F)(F)F)C(F)(F)F, the activity coefficient (303.15 K) was 0.95 and 0.94, the activity coefficient (313.15 K) was 0.9 and 0.91 and the activity coefficient (323.15 K) was 0.89 and 0.88.
With C=CCCC [1-pentene] + CCCCCCCC[N+](C)(CCCCCCCC)CCCCCCCC.O=S(=O)([N-]S(=O)(=O)C(F)(F)F)C(F)(F)F the activity coefficient (303.15 K) was 0.78 ± 0.03, the activity coefficient (313.15 K) was 0.76 and 0.74 and the activity coefficient (323.15 K) was 0.76 and 0.78.
In the case of CCCCC [pentane] + CCCCCCCC[N+](C)(CCCCCCCC)CCCCCCCC.O=S(=O)([N-]S(=O)(=O)C(F)(F)F)C(F)(F)F, the activity coefficient (303.15 K) is reported as 1.01 and 1, the activity coefficient (313.15 K) is reported as 0.99 ± 0.11 and the activity coefficient (323.15 K) is reported as 1 and 0.98.
With C=CCCCCCCCC [1-decene] + CCCCCCCC[N+](C)(CCCCCCCC)CCCCCCCC.O=S(=O)([N-]S(=O)(=O)C(F)(F)F)C(F)(F)F the activity coefficient (303.15 K) was 2.26 and 2.22, the activity coefficient (313.15 K) was 2.13 and 2.11 and the activity coefficient (323.15 K) was 2.07 and 2.05.
In the case of C#CCCCCCCC [1-nonyne] + CCCCCCCC[N+](C)(CCCCCCCC)CCCCCCCC.O=S(=O)([N-]S(=O)(=O)C(F)(F)F)C(F)(F)F, the activity coefficient (303.15 K) is reported as 1.15 ± 0.04, the activity coefficient (313.15 K) is reported as 1.15 and 1.17 and the activity coefficient (323.15 K) is reported as 1.18 ± 0.04.
In the case of C#CCCCC [1-hexyne] + CCCCCCCC[N+](C)(CCCCCCCC)CCCCCCCC.O=S(=O)([N-]S(=O)(=O)C(F)(F)F)C(F)(F)F, the activity coefficient (303.15 K) is reported as 0.59 ± 0.03, the activity coefficient (313.15 K) is reported as 0.59 ± 0.03 and the activity coefficient (323.15 K) is reported as 0.6 and 0.62.
For CC(C)=O [acetone] + CCCCCCCC[N+](C)(CCCCCCCC)CCCCCCCC.O=S(=O)([N-]S(=O)(=O)C(F)(F)F)C(F)(F)F, the activity coefficient (303.15 K) was 0.35 ± 0.04, the activity coefficient (313.15 K) was 0.4 and 0.38 and the activity coefficient (323.15 K) was 0.42 and 0.44.
In the case of C=CCCCCCCC [1-nonene] + CCCCCCCC[N+](C)(CCCCCCCC)CCCCCCCC.O=S(=O)([N-]S(=O)(=O)C(F)(F)F)C(F)(F)F, the activity coefficient (303.15 K) is reported as 1.99 ± 0.09, the activity coefficient (313.15 K) is reported as 1.87 and 1.91 and the activity coefficient (323.15 K) is reported as 1.81 and 1.85.
For CCCCCCC [heptane] + CCCCCCCC[N+](C)(CCCCCCCC)CCCCCCCC.O=S(=O)([N-]S(=O)(=O)C(F)(F)F)C(F)(F)F, the activity coefficient (303.15 K) was 1.3 and 1.31, the activity coefficient (313.15 K) was 1.26 and 1.28 and the activity coefficient (323.15 K) was 1.25 ± 0.04.
For CO [methanol] + CCCCCCCC[N+](C)(CCCCCCCC)CCCCCCCC.O=S(=O)([N-]S(=O)(=O)C(F)(F)F)C(F)(F)F, the activity coefficient (303.15 K) was 0.88 and 0.89, the activity coefficient (313.15 K) was 0.81 and 0.82 and the activity coefficient (323.15 K) was 0.79 and 0.81.
For C#CCCCCCCCC [1-decyne] + CCCCCCCC[N+](C)(CCCCCCCC)CCCCCCCC.O=S(=O)([N-]S(=O)(=O)C(F)(F)F)C(F)(F)F, the activity coefficient (303.15 K) was 1.3 ± 0.04, the activity coefficient (313.15 K) was 1.33 and 1.31 and the activity coefficient (323.15 K) was 1.32 and 1.34.
With CCCCCCCCC [nonane] + CCCCCCCC[N+](C)(CCCCCCCC)CCCCCCCC.O=S(=O)([N-]S(=O)(=O)C(F)(F)F)C(F)(F)F the activity coefficient (303.15 K) was 2.57 and 2.59, the activity coefficient (313.15 K) was 2.39 ± 0.11 and the activity coefficient (323.15 K) was 2.21 ± 0.1.
With C#CCCCCC [1-heptyne] + CCCCCCCC[N+](C)(CCCCCCCC)CCCCCCCC.O=S(=O)([N-]S(=O)(=O)C(F)(F)F)C(F)(F)F the activity coefficient (303.15 K) was 0.89 ± 0.1, the activity coefficient (313.15 K) was 0.89 and 0.91 and the activity coefficient (323.15 K) was 0.9 and 0.92.
In the case of C=CCCCC [hex-1-ene] + CCCCCCCC[N+](C)(CCCCCCCC)CCCCCCCC.O=S(=O)([N-]S(=O)(=O)C(F)(F)F)C(F)(F)F, the activity coefficient (303.15 K) is reported as 0.89 and 0.88, the activity coefficient (313.15 K) is reported as 0.85 ± 0.03 and the activity coefficient (323.15 K) is reported as 0.88 and 0.87.
With C1CCCC1 [cyclopentane] + CCCCCCCC[N+](C)(CCCCCCCC)CCCCCCCC.O=S(=O)([N-]S(=O)(=O)C(F)(F)F)C(F)(F)F the activity coefficient (303.15 K) was 0.71 ± 0.03, the activity coefficient (313.15 K) was 0.69 and 0.7 and the activity coefficient (323.15 K) was 0.7 and 0.69.
